# Experimental data published in patent US20100216779A1 (GLAXOSMITHKLINE LLC, priority 2007, published 2010).
# How the values were obtained:
# Format in all cases: cell-based
# COLO205 (colon) = test: Inhibition of cell proliferation, CellTiter-Glo, COLO205; settings: Homo sapiens, COLO 205, 72 h
# Description: C. Inhibition of Cell Proliferation
# Cell proliferation was measured by either CellTiter-Glo (measures cellular ATP level as a surrogate for total cell number) or by InCell analyzer (counts number of nuclei as a measure of cell number). For CellTiter-Glo assay, exponentially growing cell lines of different tumor origins, cultured in appropriate media containing 10% fetal bovine serum at 37° C. in a 5% CO2 incubator, were plated at low density (less than 2000 cells/well) in 96-well plates. […] Several wells were left untreated as a control. Seventy two hours post-treatment, cell numbers were determined using 50-100 ul per well of CellTiter-Glo (Promega #G7573). Plates were incubated at 37° C. for 30 minutes and the chemiluminescent signal was read on the Victor V or Envison 2100 reader. […]
# [1] = molecular target: T1, human IGF-1R (NIH-3T3 cells over expressing human IGF-1R) (Homo sapiens, UniProt P08069); test: IGF-1R cellular autophosphorylation (DELFIA); settings: IGF-1 stimulated
# T1 construct: expressed in transfected cells; host or cells: NIH-3T3 (mouse fibroblasts)
# Description: (§1) D. IGF-1R and IR Cellular Autophosphorylation (DELFIA)
# (§2) NIH-3T3 cells over expressing human IGF-1R or IR were plated in 96-well plates (10,000 cells/well) in culture media containing 10% fetal bovine serum and incubated at 37° C. in a 5% CO2 incubator. Twenty four hours post-plating, cells were treated with different concentrations of test compounds ranging from 30 uM to 1.5 nM. Two hours after compound addition, cells were stimulated with either human IGF-1 (30 ng/mL) or insulin (3 ug/mL) for 15 minutes. Cell lysates are analyzed for phosphorylated receptors using dissociation enhanced lanthanide fluor-immuno assay (DELFIA) with anti-IGF-1R (MAB391, R&D Systems, Minneapolis, Minn.) or anti-IR[…](sc-711, Santa Cruz Biotechnology, Santa Cruz, Calif.) capture antibody and europium-labeled anti-pTyr antibody (Eu-N1 PT66, Perkin Elmer, Waltham, Mass.) for detection. The fluorescence signal for cells treated with compounds was expressed as percent relative to 100% stimulation (IGF-1 or insulin stimulated signal). […]
# [2] = molecular target: T2, IR (NIH-3T3 cells over expressing human IGF-1R or IR) (Homo sapiens, UniProt P06213); test: IR cellular autophosphorylation (DELFIA); settings: NIH-3T3 cells over expressing IR, insulin stimulated
# T2 construct: expressed in transfected cells; host or cells: NIH-3T3 (mouse fibroblasts)
# Description: as §1, §2
# T2 sequence (P06213 28-1382): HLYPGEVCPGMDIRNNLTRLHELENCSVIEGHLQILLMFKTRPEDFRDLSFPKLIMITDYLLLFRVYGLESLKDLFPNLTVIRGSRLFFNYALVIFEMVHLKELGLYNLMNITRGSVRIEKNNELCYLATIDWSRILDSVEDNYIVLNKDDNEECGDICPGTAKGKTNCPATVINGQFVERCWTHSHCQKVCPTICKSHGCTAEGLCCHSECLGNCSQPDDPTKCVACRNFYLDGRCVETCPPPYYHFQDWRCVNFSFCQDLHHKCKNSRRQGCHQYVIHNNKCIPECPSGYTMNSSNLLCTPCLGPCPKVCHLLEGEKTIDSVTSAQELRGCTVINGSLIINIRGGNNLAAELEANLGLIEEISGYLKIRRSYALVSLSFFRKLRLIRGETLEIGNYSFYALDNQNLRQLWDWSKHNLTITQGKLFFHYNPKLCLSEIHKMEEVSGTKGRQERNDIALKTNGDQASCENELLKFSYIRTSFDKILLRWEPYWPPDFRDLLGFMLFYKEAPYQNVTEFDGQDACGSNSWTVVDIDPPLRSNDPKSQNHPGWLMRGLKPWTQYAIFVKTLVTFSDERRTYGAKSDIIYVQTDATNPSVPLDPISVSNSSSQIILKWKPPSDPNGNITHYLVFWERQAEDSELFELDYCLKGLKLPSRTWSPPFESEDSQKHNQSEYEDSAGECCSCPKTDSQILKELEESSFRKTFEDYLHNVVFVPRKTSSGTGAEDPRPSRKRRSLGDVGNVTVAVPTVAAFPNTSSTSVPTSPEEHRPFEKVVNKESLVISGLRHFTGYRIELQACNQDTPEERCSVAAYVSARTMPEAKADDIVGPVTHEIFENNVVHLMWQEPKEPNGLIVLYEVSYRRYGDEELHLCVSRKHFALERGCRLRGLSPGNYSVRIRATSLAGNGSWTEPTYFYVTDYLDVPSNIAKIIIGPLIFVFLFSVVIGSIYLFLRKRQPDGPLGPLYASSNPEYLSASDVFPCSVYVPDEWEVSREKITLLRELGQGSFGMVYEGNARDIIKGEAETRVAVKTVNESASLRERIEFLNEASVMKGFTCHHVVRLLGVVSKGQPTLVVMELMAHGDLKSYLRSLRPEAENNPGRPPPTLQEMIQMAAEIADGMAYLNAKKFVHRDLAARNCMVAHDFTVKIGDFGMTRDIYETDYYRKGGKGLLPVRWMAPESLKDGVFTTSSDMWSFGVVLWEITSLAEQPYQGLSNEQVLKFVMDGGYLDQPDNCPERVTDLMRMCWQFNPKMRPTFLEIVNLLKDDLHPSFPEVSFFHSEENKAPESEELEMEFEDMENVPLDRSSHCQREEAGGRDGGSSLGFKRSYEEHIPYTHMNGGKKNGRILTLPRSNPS
# T1 sequence (P08069 31-1367): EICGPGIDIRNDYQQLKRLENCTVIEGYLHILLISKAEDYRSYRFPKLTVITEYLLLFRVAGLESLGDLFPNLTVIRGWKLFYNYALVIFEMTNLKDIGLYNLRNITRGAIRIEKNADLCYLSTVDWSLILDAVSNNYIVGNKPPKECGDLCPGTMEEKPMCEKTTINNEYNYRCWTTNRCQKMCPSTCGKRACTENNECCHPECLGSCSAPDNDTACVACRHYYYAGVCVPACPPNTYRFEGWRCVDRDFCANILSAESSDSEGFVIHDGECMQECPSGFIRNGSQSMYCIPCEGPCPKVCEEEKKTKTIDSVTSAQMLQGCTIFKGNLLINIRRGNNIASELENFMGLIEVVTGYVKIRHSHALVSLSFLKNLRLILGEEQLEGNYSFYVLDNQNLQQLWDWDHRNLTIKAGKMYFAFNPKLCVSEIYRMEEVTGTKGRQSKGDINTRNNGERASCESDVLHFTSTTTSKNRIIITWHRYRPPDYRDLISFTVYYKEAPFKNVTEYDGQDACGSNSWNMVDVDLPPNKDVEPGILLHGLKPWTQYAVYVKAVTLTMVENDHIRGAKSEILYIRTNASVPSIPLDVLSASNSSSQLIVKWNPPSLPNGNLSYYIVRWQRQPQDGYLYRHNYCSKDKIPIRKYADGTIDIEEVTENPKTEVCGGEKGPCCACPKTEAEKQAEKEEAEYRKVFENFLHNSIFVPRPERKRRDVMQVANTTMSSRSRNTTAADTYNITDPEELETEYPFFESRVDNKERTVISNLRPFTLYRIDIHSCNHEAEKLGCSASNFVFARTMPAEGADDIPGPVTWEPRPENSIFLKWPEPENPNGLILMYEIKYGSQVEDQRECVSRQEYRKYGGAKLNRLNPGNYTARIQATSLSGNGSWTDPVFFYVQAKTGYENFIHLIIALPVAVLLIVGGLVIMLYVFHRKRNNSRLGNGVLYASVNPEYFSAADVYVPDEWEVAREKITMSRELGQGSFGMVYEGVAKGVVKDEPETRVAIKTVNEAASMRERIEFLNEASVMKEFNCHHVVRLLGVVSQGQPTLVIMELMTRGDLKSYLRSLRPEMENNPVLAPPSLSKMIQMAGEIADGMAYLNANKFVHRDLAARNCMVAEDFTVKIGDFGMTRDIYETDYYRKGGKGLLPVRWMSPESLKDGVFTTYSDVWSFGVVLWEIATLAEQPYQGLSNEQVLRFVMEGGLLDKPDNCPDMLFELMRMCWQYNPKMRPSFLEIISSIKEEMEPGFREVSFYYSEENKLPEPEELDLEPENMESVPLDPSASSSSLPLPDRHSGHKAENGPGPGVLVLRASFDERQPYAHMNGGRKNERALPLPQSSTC
Compound,IC50 (COLO205 (colon)) [nM],IC50 [1] [nM],IC50 [2] [nM]
"COc1cc(N2CCC(N3CCC(O)CC3)CC2)ccc1Nc1nccc(-c2c(-c3ccc(OC)c(C(=O)Nc4c(F)cccc4F)c3)nc3ccccn23)n1 [Example 81, N-(2,6-difluorophenyl)-5-[3-(2-{[4-(4-hydroxy-1,4′-bipiperidin-1′-yl)-2-(methyloxy)phenyl]-amino}-4-pyrimidinyl)imidazo[1,2-a]pyridin-2-yl]-2-(methyloxy)benzamide]",< 250,< 100,< 100
"COc1cc(N2CCC(N3C[C@@H]4C[C@H]3CN4CCF)CC2)ccc1Nc1nccc(-c2c(-c3cccc(C(=O)Nc4c(F)cccc4F)c3)nc3ccccn23)n1 [Example 86, N-(2,6-difluorophenyl)-3-[3-(2-{[4-{4-[(1 S,4S)-5-(2-fluoroethyl)-2,5-diazabicyclo-[2.2.1]hept-2-yl]-1-piperidinyl}-2-(methyloxy)phenyl]amino}-4-pyrimidinyl)imidazo[1,2-a]pyridin-2-yl]benzamide]",250 to 1000,< 100,< 100
"COc1cc(N2CCC(N3CCCCC3)CC2)ccc1Nc1nccc(-c2c(-c3ccc(OC)c(C(=O)Nc4c(F)cccc4F)c3)nc3ccccn23)n1 [Example 23, 5-[3-(2-{[4-(1,4′-bipiperidin-1-yl)-2-(methyloxy)phenyl]amino}-4-pyrimidinyl)imidazo[1,2-a]pyridin-2-yl]-N-(2,6-difluorophenyl)-2-(methyloxy)benzamide]",< 250,< 100,< 100
"COc1ccn2c(-c3ccnc(Nc4ccc(N5CCC(N6CCCCC6)CC5)cc4OC)n3)c(-c3ccc(OC)c(C(=O)Nc4c(F)cccc4F)c3)nc2c1 [Example 5, 5-[3-(2-{[4-(1,4′-bipiperidin-1′-yl)-2-(methyloxy)phenyl]amino}-4-pyrimidinyl)-7-(methyloxy)imidazo[1,2-a]pyridin-2-yl]-N-(2,6-difluorophenyl)-2-(methyloxy)benzamide]",> 1000,< 100,< 100
"COc1cc(N2CCC(N3CCCCCC3)CC2)ccc1Nc1nccc(-c2c(-c3cccc(C(=O)Nc4c(F)cccc4F)c3)nc3ccccn23)n1 [Example 50, N-(2,6-difluorophenyl)-3-[3-(2-{[4-[4-(hexahydro-1H-azepin-1-yl)-1-piperidinyl]-2-(methyloxy)phenyl]amino}-4-pyrimidinyl)imidazo[1,2-a]pyridin-2-yl]benzamide]",250 to 1000,< 100,< 100
"COc1ccn2c(-c3ccnc(Nc4cccc(OCCN(C)C)c4)n3)c(-c3cccc(C(=O)Nc4cccc(F)c4F)c3)nc2c1 [Example 15, N-(2,3-difluorophenyl)-3-[3-{2-[(3-{[2-(dimethylamino)ethyl]oxy}phenyl)amino]-4-pyrimidinyl}-7-(methyloxy)imidazo[1,2-a]pyridin-2-yl]benzamide]",< 250,100 to 500,> 500
"Cc1cc(N2CCC(N3CCCCC3)CC2)ccc1Nc1nccc(-c2c(-c3cccc(C(=O)Nc4c(F)cccc4F)c3)nc3ccccn23)n1 [Example 53, 3-[3-(2-{[4-(1,4′-bipiperidin-1′-yl)-2-methylphenyl]amino}-4-pyrimidinyl)imidazo[1,2-a]pyridin-2-yl]-N-(2,6-difluorophenyl)benzamide]",250 to 1000,< 100,100 to 500
"COc1cc(N2CCC(N3CCCC3)CC2)ccc1Nc1nccc(-c2c(-c3cccc(C(=O)Nc4c(F)cccc4F)c3)nc3ccccn23)n1 [Example 78, N-(2,6-difluorophenyl)-3-{3-[2-({2-(methyloxy)-4-[4-(1-pyrrolidinyl)-1-piperidinyl]-phenyl}amino)-4-pyrimidinyl]imidazo[1,2-a]pyridin-2-yl}benzamide]",< 250,< 100,< 100
"COc1cc(N2CCC(O)CC2)ccc1Nc1nccc(-c2c(-c3cccc(C(=O)Nc4c(F)cccc4F)c3)nc3ccccn23)n1 [Example 73, N-(2,6-difluorophenyl)-3-[3-(2-{[4-(4-hydroxy-1-piperidinyl)-2-(methyloxy)phenyl]amino}-4-pyrimidinyl)imidazo[1,2-a]pyridin-2-yl]benzamide]",250 to 1000,< 100,100 to 500
"COc1cc(CCCN2CCN(C)CC2)ccc1Nc1nccc(-c2c(-c3ccc(OC)c(C(=O)Nc4c(F)cccc4F)c3)nc3ccccn23)n1 [Example 142, N-(2,6-difluorophenyl)-2-(methyloxy)-5-{3-[2-({2-(methyloxy)-4-[3-(4-methyl-1-piperazinyl)propyl]phenyl}amino)-4-pyrimidinyl]imidazo[1,2-a]pyridin-2-yl}benzamide]",250 to 1000,< 100,< 100
"COc1cc(N2CCC(N3CCCCC3)CC2)ccc1Nc1nccc(-c2c(-c3cccc(C(=O)Nc4ccc(F)cc4Cl)c3)nc3ccccn23)n1 [Example 44, 3-[3-(2-{[4-(1,4′-bipiperidin-1′-yl)-2-(methyloxy)phenyl]amino}-4-pyrimidinyl)imidazo[1,2-a]pyridin-2-yl]-N-(2-chloro-4-fluorophenyl)benzamide]",250 to 1000,< 100,100 to 500
"COc1cc(N2CCC(O)CC2)ccc1Nc1nccc(-c2c(-c3ccc(OC)c(C(=O)Nc4c(F)cccc4F)c3)nc3ccccn23)n1 [Example 122, N-(2,6-difluorophenyl)-5-[3-(2-{[4-(4-hydroxy-1-piperidinyl)-2-(methyloxy)phenyl]amino}-4-pyrimidinyl)imidazo[1,2-a]pyridin-2-yl]-2-(methyloxy)benzamide]",< 250,< 100,< 100
"COc1ccc(-c2nc3ccccn3c2-c2ccnc(Nc3cccc(OCCN(C)C)c3)n2)cc1C(=O)Nc1c(F)cccc1F [Example 1, N-(2,6-difluorophenyl)-5-(3-{2-[(3-{[2-(dimethylamino)ethyl]oxy}phenyl)-amino]-4-pyrimidinyl}imidazo[1,2-a]pyridin-2-yl)-2-(methyloxy)benzamide]",< 250,< 100,100 to 500
"COc1cc([C@H]2CC[C@H](N3CCN(CCS(C)(=O)=O)CC3)CC2)ccc1Nc1nccc(-c2c(-c3cccc(C(=O)Nc4c(F)cccc4F)c3)nc3ccccn23)n1 [Example 94, N-(2,6-difluorophenyl)-3-[3-(2-{[2-(methyloxy)-4-(trans-4-{4-[2-(methylsulfonyl)-ethyl]-1-piperazinyl}cyclohexyl)phenyl]amino}-4-pyrimidinyl)imidazo[1,2-a]pyridin-2-yl]benzamide]",> 1000,< 100,100 to 500
"CC(C)Oc1cc(N2CCC(N3CCCCC3)CC2)ccc1Nc1nccc(-c2c(-c3cccc(C(=O)Nc4c(F)cccc4F)c3)nc3ccccn23)n1 [Example 35, 3-{3-[2-({4-(1,4′-bipiperidin-1′-yl)-2-[(1-methylethyl)oxy]phenyl}amino)-4-pyrimidinyl]imidazo[1,2-a]pyridin-2-yl}-N-(2,6-difluorophenyl)benzamide]",250 to 1000,100 to 500,100 to 500
"COc1cc(N2CCC(N3CCCCC3)CC2)c(F)cc1Nc1nccc(-c2c(-c3cccc(C(=O)Nc4c(F)cccc4F)c3)nc3ccccn23)n1 [Example 106, 3-[3-(2-{[4-(1,4′-bipiperidin-1′-yl)-5-fluoro-2-(methyloxy)phenyl]amino}-4-pyrimidinyl)imidazo[1,2-a]pyridin-2-yl]-N-(2,6-difluorophenyl)benzamide]",250 to 1000,< 100,< 100
"COc1cc(N2CCC(N3CCCCC3)CC2)ccc1Nc1nccc(-c2c(-c3cccc(C(=O)Nc4c(F)cccc4F)c3)nc3cc(C)ccn23)n1 [Example 18, 3-[3-(2-{[4-(1,4′-bipiperidin-1′-yl)-2-(methyloxy)phenyl]amino}-4-pyrimidinyl)-7-methylimidazo[1,2-a]pyridin-2-yl]-N-(2,6-difluorophenyl)benzamide]",250 to 1000,< 100,100 to 500
"CCOc1cc(N2CCN(C3CCN(CCS(C)(=O)=O)CC3)CC2)ccc1Nc1nccc(-c2c(-c3cccc(C(=O)Nc4c(F)cccc4F)c3)nc3ccccn23)n1 [Example 92, N-(2,6-difluorophenyl)-3-[3-(2-{[2-(ethyloxy)-4-(4-{1-[2-(methylsulfonyl)ethyl]-4-piperidinyl}-1-piperazinyl)phenyl]amino]-4-pyrimidinyl)imidazo[1,2-a]pyridin-2-yl]benzamide]",< 250,< 100,< 100
